Legend:
Type in all cases: in vivo, CD2F1 mice
[1] = system: IL-6 receptor alpha chain (IL-6Rα) mRNA; test: qPCR of skeletal muscle, C-26 model: IL-6Rα; conditions: muscle of C-26 tumor-bearing mice; tumor-bearing/vehicle 13±1.4-fold
Protocol: Total RNA was isolated from homogenized gastrocnemius muscles (n=3/group) with TRIzol reagent (Life Technologies, Carlsbad, Calif.) and then purified using the RNAeasy Mini Kit (Qiagen, Valencia, Calif.). qRT-PCR was performed as described previously (42) by using the Bio-Rad CFX96 Real-Time PCR Detection System with iQ SYBR Green Supermix (Bio-Rad, Hercules, Calif.). RNA-seq library generation and data analysis were performed at The Ohio State University Comprehensive Cancer Center (OSUCCC) Nucleic Acid Shared Resource.
Cytokine profiles. […] AR-42 reduced IL-6 and LIF levels by 56% and 88%, respectively, in tumor-bearing mice (IL-6, 102±38 pg/ml; LIF, 3.8±1.6 pg/ml) compared to the vehicle-treated counterparts. In light of the ability of AR-42 to blunt cachexia-associated increases in IL-6, we examined the effect of AR-42 on intramuscular mRNA levels of IL-6 receptor alpha chain (IL-6Rα). […] AR-42 reduced this cachexia-induced increase by 85% (2.0±0.2-fold; n=10)(FIG. 5, lower).

C-26 tumor-bearing mice [2] = test: C-26 colon adenocarcinoma model of cancer cachexia (body, muscle and tissue weights, tumor growth, food intake)
Protocol: (§1) In one aspect, tumors were established by subcutaneous injection of C-26 cells (0.5×10^6 cells in 0.1 ml) into the right flank of male CD2F1 mice (approximately 6 weeks of age; Harlan Laboratories, Indianapolis, Ind.)(11). Tumor-bearing mice, as well as tumor-free mice serving as non-cachectic controls, were randomized into groups that were treated with either AR-42 (50 mg/kg, p.o. by gavage, every other day; Arno Therapeutics, Inc., Flemington, N.J.) or vehicle (0.5% methylcellulose (w/v) and 0.1% Tween-80 (v/v) in sterile water) starting 6 days after cell injection. To investigate the effect of delayed treatment, treatments with drug and/or vehicle were started 6, 10 and 12 days after cancer cell injection.
In another aspect, subcutaneous tumors were established in male C57BL/6 mice (approximately 6 weeks of age; Harlan) by injection of 0.5×10^6 LLC cells into the right flank. Treatment with AR-42 and vehicle was performed as for the C-26 model beginning 6 days after cell injection. In both models, body weights and food consumption were monitored daily and tumor size was measured no less than every two days. Mice were fasted for 2 hours prior to sacrifice, at which time, hind limb muscles, heart, spleen, epididymal fat, and blood were collected and the weights of the solid tissues were measured. Muscle samples were frozen in liquid nitrogen-chilled 2-methylbutane and then stored at −80° C. until analysis.
In one aspect, mice were treated orally by gavage with AR-42 (50 mg/kg) or vehicle every other day starting 6 days after injection C-26 cells, when palpable tumors had formed. […] By the study endpoint (day 15), the magnitude of the weight loss, after deducting the mass of the tumors (1 cm^3 volume=1 gram mass), reached >20% for the vehicle-treated group, and 6% for AR-42-treated mice (center). […] The AR-42-treated mice, despite their large tumor burden, were alert, responsive, active, and lacked the hunched posture and rough haircoat observed in vehicle-treated counterparts by the end point of this study (FIG. 1B).
CD2F1 and C57BL/6 mice were group-housed under conditions of constant photoperiod (12-hour light/12-hour dark), temperature and humidity with ad libitum access to water and standard diet. Mice were briefly anesthetized (isoflurane, 3-4%) during administration of drugs (AR-42, vorinostat, vehicle) by oral gavage. Food consumption was estimated by weighing food in each cage daily and dividing the daily decrease in food by the number of mice in the cage. Tumor volumes were calculated from caliper measurements using a standard formula (length×width^2×π/6).

C-26 tumor-bearing mice [3] = test: Forelimb grip strength measurement, C-26 delayed treatment; conditions: all drug-treated groups (start day 6, 10, 12); day 15 and 16
Protocol: Forelimb grip strength was measured mice using a Digital Grip Strength Meter (Columbus Instruments, Columbus, Ohio). Five measurements were taken from each mouse, the average of which was designated as the mouse's grip strength.
To measure forelimb grip strength, each mouse was held by the base of its tail and lowered over the apparatus until its forepaws grasped the pull bar. The mouse was then gently pulled horizontally in a straight line away from the grip meter until the mouse released the bar, and the maximum force attained was recorded. Five measurements were taken from each mouse, the average of which was designated as the mouse's grip strength.

C-26 tumor-bearing mice [4] = test: Delayed treatment in the C-26 model (body weight, tumor growth)
Protocol: as §1
In those experiments, treatment was initiated early in the progression of cachexia when overt signs of wasting were undetectable. To investigate whether later initiation of AR-42 treatment remains protective against cachexia, C-26 tumor-bearing mice were treated with AR-42 (50 mg/kg, p.o., every other day) starting at 6, 10 and 12 days after tumor cell injection.

IL-6 = test: Serum cytokine profiling, C-26 model: IL-6; conditions: C-26 tumor-bearing mice, day 17; tumor-bearing/vehicle 230±105, tumor-free/vehicle 2.9±1.3
Description: Gastrocnemius muscles and sera were collected at day 17 post-cell injection from each treatment group (n=8/group). Muscle was submitted to Metabolon, Inc. (Durham, N.C.) for metabolomic analysis of 270 metabolic intermediates via proprietary mass spectrometry platforms. Serum was submitted to Eve Technologies (Alberta, Canada) for analysis of 32 cytokines using a mouse cytokine array (32-plex panel).
To shed light onto the mechanism by which AR-42 mediated its anti-cachectic effect, sera and gastrocnemius muscle from vehicle- or AR-42-treated tumor-free and C-26 tumor-bearing mice were used for cytokine profiling analysis and whole transcriptome shotgun sequencing (RNA-seq), respectively.

[5] = 50 mg/kg p.o. every other day, vehicle 19%

SMILES: CC(C)[C@H](C(=O)Nc1ccc(C(=O)NO)cc1)c1ccccc1 [AR-42, (S)—N-hydroxy-4-(3-methyl-2-phenylbutanamido)benzamide]
- IL-6Rα mRNA level compared to tumor-free mice [1]: 2.0±0.2 fold
- enlarged spleens (splenomegaly) in tumor-bearing mice (C-26 tumor-bearing mice [2]): not improved
- loss of cardiac tissue mass in tumor-bearing mice (C-26 tumor-bearing mice [2]): ameliorated
- tumor growth relative to vehicle (C-26 tumor-bearing mice [2]; 50 mg/kg p.o. every other day from day 6, 15-day study): did not alter tumor growth
- magnitude of the weight loss after deducting the mass of the tumors (C-26 tumor-bearing mice [2]; 50 mg/kg p.o. every other day from day 6, study endpoint day 15, vehicle group >20%): 6%
- reduction of tibialis anterior weight relative to tumor-free control mice (C-26 tumor-bearing mice [2]; day 15, tumor-bearing/vehicle 10.5%): 0.8%
- reduction of quadriceps weight relative to tumor-free control mice (C-26 tumor-bearing mice [2]; day 15, tumor-bearing/vehicle 18.1%): 5.8%
- reduction of gastrocnemius weight relative to tumor-free control mice (C-26 tumor-bearing mice [2]; day 15, tumor-bearing/vehicle 20.6%): 9.6%
- loss of adipose tissue mass in tumor-bearing mice (C-26 tumor-bearing mice [2]; restored to a level comparable to tumor-free/AR-42 mice): restored the loss of adipose tissue mass
- forelimb muscle strength (handgrip dynamometry) relative to vehicle-treated control (C-26 tumor-bearing mice [3]): helped preserve forelimb muscle strength
- loss of body weight (tumor excluded) by day 17, treatment starting at day 6 (C-26 tumor-bearing mice [4]; [5]): 6%
- loss of body weight (tumor excluded) by day 17, treatment starting at day 10 (C-26 tumor-bearing mice [4]; [5]): 11%
- loss of body weight (tumor excluded) by day 17, treatment starting at day 12 (C-26 tumor-bearing mice [4]; [5]): 12%
- effect on tumor growth, delayed treatment experiment (C-26 tumor-bearing mice [4]; treatment from day 6, 10 or 12): without appreciable effects
- serum IL-6 level (IL-6): 102 ± 38 pg/mL

Reference: patent publication US11219607B2, “Methods for suppressing cancer-related cachexia” (Ohio State Innovation Foundation, priority 2013, dated 2022)
